Laboratory results from the METLIN SMRT retention time set (Domingo-Almenara et al. 2019).

Assay: gradient 5% acetonitrile 3 min, to 50% in 2 min, to 85% in 15 min, held 3 min, 100 µL/min
Settings: column: Zorbax Extend-C18 2.1 x 50 mm; eluents: water / acetonitrile, 0.1% formic acid
In short: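 Using water and acetonitrile that each contained 0.1% formic acid, mixtures of ~100 pure standards were separated at 100 μL/min on a Zorbax Extend-C18 column (2.1 × 50 mm, 1.8 μm). The HPLC fed a quadrupole time-of-flight mass spectrometer working in positive and negative ionization mode, with dead and dwell volumes of 40 μL and 900 μL. Data were acquired over 3 months. Retention time was read from computationally picked adduct peaks after manual inspection of each.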

SMILES	RP-LC retention time [s]
O=C(c1ccnnc1)N1C[C@@H](COCC2CC2)[C@H](c2ccncc2)C1	570
Cn1cnc(S(=O)(=O)N2CCc3c(c(-c4nncn4Cc4ccccc4)nn3C)C2)c1	682
COc1ccc(-c2nnc(-c3ccccc3)o2)cc1S(=O)(=O)NC(C)C	870
O=c1[nH]c(-c2cccc(O)c2)nc2sc3c(c12)CCCC3	830
CCOC(=O)C1=C(C)NC2=C(C(=O)C(C(=O)OC)C(C)C2)C1c1ccc(N(C)C)cc1 (stereo not given)	631
O=C(CCc1ccc2c(c1)CN(C(=O)C1CC1)CCO2)NC1CCS(=O)(=O)C1 (stereo not given)	617
CC1CCN(S(=O)(=O)c2ccc3c(c2)CCCC(=O)N3CC(=O)NCc2ccccc2)CC1	907
Cc1cc(C)c(S(=O)(=O)N2CCC3(CC2)c2nccn2CCN3C)c(C)c1	684
Cc1cc(C(=O)Nc2cnc(N3CCCCC3)nc2)no1	845
Fc1cccc(-c2nc(-c3ccc(-n4cccn4)nc3)no2)c1	1220
COc1cccc(-c2nc(-c3ccc(-n4ccnc4)nc3)no2)c1	736
CC(C)(C)c1ccc(C(=O)Nc2nc(-c3ccc(F)cc3)cs2)cc1	1310
CCCN1C(=O)c2c(C(=O)NCc3ccccc3F)ncn2CC1(C)C(=O)NC1CCCC1 (stereo not given)	787
CC(C)C(NC(=O)c1ccc(F)c(Cl)c1)C(=O)Nc1nc2ccccc2[nH]1 (stereo not given)	756
O=C(Nc1nncs1)C1CCN(C(=O)c2ccccc2F)CC1	641
Cn1nc(-c2nnc(-c3ccccc3Cl)o2)c2c1CCN(C(=O)NC1CCCCC1)C2	899
O=C(COc1ccc(Cl)cc1Cl)NCC(=O)N1CCOC(c2ccccc2)C1 (stereo not given)	927
COc1ccc(-n2c(=O)c3sccc3n(Cc3nc(-c4ccccc4OC)no3)c2=O)cc1	856
Cc1ccc(N2C(=O)CN(S(C)(=O)=O)CC2(C)C(=O)NC2CCCCC2)cc1Cl (stereo not given)	892
COc1ccc2[nH]c(=O)c(CCC(=O)NCc3ccco3)cc2c1	655
CC(C)c1ccc(NC(=O)c2cn(C)nc2S(=O)(=O)N2CCSCC2)cc1	944

SMILES	RP-LC retention time [s]
Cc1noc(-c2ccc(-n3ncc(C(=O)NC4CCCCC4)c3C)nc2)n1	737
O=C(Cc1ccc(F)cc1)N[C@H](Cc1ccccc1)C(=O)NCc1cscn1	741
O=C1CCc2cc(NC(=O)c3cc(-c4ccccc4)nc4ccccc34)ccc2N1	818
Cn1cc(-c2cc3n(n2)CCC(=O)N3CC(=O)NCc2ccccc2Cl)c2ccccc21	830
O=S1(=O)N(Cc2cccc(F)c2)CCCN1Cc1ccccc1Cl	1180
O=c1c2cc(-c3cccs3)nn2cnn1Cc1nc(-c2cccc(Br)c2)no1	1150
COc1nn(C)cc1C(=O)NCC(=O)NC1CCSC1=O (stereo not given)	559
COc1ccccc1CCC(=O)NCC(=O)Nc1nc2ccccc2[nH]1	652
CCN1CCN(CCCNC(=O)C2CCCN(c3nnc(-n4cccc4)s3)C2)CC1 (stereo not given)	572
O=C1CN(CCc2cccs2)C2CS(=O)(=O)CC2N1c1ccc(Cl)cc1 (stereo not given)	790
CCc1noc(-c2cnc3nc(C)ccc3c2Nc2ccc(OC)cc2)n1	764
O=C(Nc1ccc2c(c1)OCCO2)c1cc2nc(N3CCCCC3)sc2s1	1010
COCCc1noc(-c2ccc(=O)n(CC(=O)NC3CCCCC3)c2)n1	684
Oc1ccc2c(ccc3[nH]cnc32)c1	622
O=S(=O)(Nc1cccc(-c2cn3ccccc3n2)c1)c1ccc(Br)cc1	673
COc1ccc(NC(=O)c2cn3c(n2)CCCC3)cc1OC	570
O=C(COc1ccc(-c2cnc3ccccc3n2)cc1)NCC1CCCO1 (stereo not given)	726
COC(=O)c1c(-c2cccs2)csc1NC(=O)c1cc(OC)c(OC)c(OC)c1	1120
CN1C(=O)Cc2cc(C(=O)NC3CCCC3)ccc21	665
COc1cc2c(cc1OC)C(C(=O)NCCN1CCOCC1)C(c1cccs1)N(C)C2=O (stereo not given)	604
COc1ccc(C2Cn3nnc(-c4nc(-c5ccc(Cl)cc5)no4)c3CO2)cc1 (stereo not given)	1240

Now from value to compound:

RP-LC retention time [s]	SMILES
749	Cc1ccccc1Cn1cc(-c2ccncc2)cc1C(=O)Nc1ccc2c(c1)OCO2
626	COc1ccc(C2(C(=O)N3CC(n4ccnc4C(C)C)C3)CC2)cc1
750	O=C(Nc1c(-c2ccccc2)nc2ccc(Cl)cn12)c1ccc(F)cc1
1100	O=C(NCc1cccc(C(F)(F)F)c1)C1CCCN(c2nccnc2Sc2ccccc2)C1 (stereo not given)
970	COC(=O)c1ccc(NC(=O)CSc2cc(N3CCN(c4ccccc4OC)CC3)ncn2)cc1
914	Cc1cccc(-n2c(=O)c3c(cc(C)n3C)n(CC(=O)Nc3c(C)cc(C)cc3C)c2=O)c1
715	O=C(Cn1nc(C(=O)N2CCOCC2)c2ccccc21)NCc1ccc(F)cc1
821	COc1ccc2nc(C(=O)NC(C)c3ccc(F)cc3)cn2n1 (stereo not given)
937	Cn1c(=O)c2cc(C(=O)Nc3ccc(F)c(F)c3)cnc2n(-c2ccccc2)c1=O
1120	Cc1ccc(C)c(N2CCN(c3ccnc(SCC(=O)Nc4cc(F)ccc4F)n3)CC2)c1
826	CCN1C(=O)c2cccnc2Sc2cc(NC(=O)Cc3ccccc3F)ccc21
658	CCOc1ccccc1NC(=O)N1CCN(c2cnn3c(C)nnc3c2)CC1
704	Cc1ccc2nc(NC(=O)CSc3nn4c(=O)c(C)nnc4s3)sc2c1
956	CC1CCN(c2nc(C(=O)N3CCN(c4ccccc4)CC3)nc3c2cnn3C)CC1
742	COc1ccc(C(=O)N2CCC3(CC2)NC(=O)c2cc(Cl)ccc2N3C)cc1OC
705	O=C(NCc1ccc(F)cc1)N1CCC(c2noc(-c3cnccn3)n2)C1 (stereo not given)
636	CCN1CCN(C(=O)Cn2cccc2-c2nnc(-c3ccccc3)o2)CC1
916	Cc1nn2c(CNS(=O)(=O)c3ccc(C)c(C)c3)c(-c3ccccc3)nc2s1
730	O=C(Nc1nnc(C2CC(=O)N(c3ccc(F)cc3)C2)o1)c1cccc(F)c1 (stereo not given)
975	CC(C)Cn1cc(CCNC(=O)Nc2ccc(Br)cc2F)c2cccnc21
1200	CCOc1ccc(NC(=O)Cc2c(C)nn(-c3nc(-c4ccc(F)cc4)cs3)c2C)cc1
1010	CCOc1ccc(OCC)c(NC(=O)CSc2nnc3c4cc(-c5ccc(OC)cc5)nn4ccn23)c1
951	O=C(NCc1ccc(F)cc1)c1ccc2c(cnn2CC(=O)N2CCCCCC2)c1
